Laboratory results reported in patent US12409172B2, “Dosage regimen” (UNION therapeutics A/S, priority 2023, dated 2025).
Where “and” joins values, the source holds several entries; their conditions need not be identical. Equal values may be shown once.

Assays:
[1] = Population pharmacokinetics (popPK) model for orismilast; design: species or system human
Procedure: All subjects were treated with orismilast as IR capsule, IR solution, IR tablet or MR tablet with available PK samples. Although the modified release tablet was the formulation selected for further studies, the popPK model was also built using the immediate release formulations (IR solution, IR tablet and IR capsule), especially to obtain stable estimates of elimination parameters (clearances) across formulations and obtain a robust model to support the simulation.
PopPK parameters were estimated by non-linear mixed effect modelling using MONOLIX. Mixed effects models describe the influence of both fixed effects and random effects. The random effects are typically used to capture the variability which can be split in residual variability (error) and between-subject variability.
The population model was defined by 4 components: • 1. The structural popPK model components, which defines the PK parameters and describe the plasma concentration-time profiles of orismilast. • 2. The inter-individual random effect model component, which describes the inter-individual variation (IIV) and inter-occasion variation (IOV) in PK parameters after correction for fixed effects. • 3. The residual error (or random effect) model component, which describes the underlying distribution of the error in the measured concentrations. • 4. The covariate model component, which describes the influence of fixed effects (i.e., demographic factors) on PK parameters.
The search for the final model followed the following stepwise strategy: • 1. Selection of the simplest structural model, which predicts the plasma concentration as a function of time and dose, based on smallest objective function (OF) and by the pattern in the residual plots. The best structural model, the most appropriate.IIV and IOV models, and the residual error model, were identified. The structural model was determined using the rich Phase I data from healthy volunteers (LP0058-S01, LP0058-1005, LP0058-1114, LP0058-1362, LP0058-1324 and LP0058-1442). • 2. Preliminary visual check using predictive check approach was applied to sparse data from psoriasis patients (study LP0058-1072) to assess the predictability capacities of the structural model for patient data. • 3. Psoriasis patient data were included in the model and the model was refined or adjusted if necessary. • 4. Graphical exploration of the covariates: between individual covariates and EBE of parameter or random effects. • 5. Determination of the covariate model. • 6. Selection of significant covariates to obtain the FINAL model. • 7. Inclusion of new studies in the model (e.g. UN1500001-203 and CIB1353A101) was performed by repeating steps 2 to 6.
The pre-specified covariates that were suspected a priori of having an influence on PK parameters, were included in the full model and the selection of the final model with relevant covariates were based on the statistical Wald test (keep covariates with p-value <0.05). The influence of body weight on PK parameters was included using fixed standard allometric scales.
The model was evaluated using diagnostic and goodness of fit plots and validated using Visual Predictive Checks. SAS® software V9.4 and Monolix Suite version 2021R1 release were used.
The structural model was parameterised in terms of apparent clearance (CL/F), volume of distribution of central compartment (V1/F), inter-compartmental clearance (Q/F) and volume of distribution for peripheral compartment (V2/F). The absorption was described by a 1st—order rate constant (ka1) for first absorption process, 1st—order rate constant (ka2) for second absorption process, fraction of dose absorbed through the first process (F1) and lag time (tlag2) for the start of the second phase. The relative bioavailability was also added to characterize the difference between the formulations, it was set to 1 for the IR solution, so, the other formulations were expressed relatively to the IR solution. […]

CYP2D6 = CYP2D6 (Homo sapiens, UniProt P10635); experiment: CYP2D6 inhibition in vitro; format: in vitro ADME
Chain of CYP2D6 (P10635 whole entry): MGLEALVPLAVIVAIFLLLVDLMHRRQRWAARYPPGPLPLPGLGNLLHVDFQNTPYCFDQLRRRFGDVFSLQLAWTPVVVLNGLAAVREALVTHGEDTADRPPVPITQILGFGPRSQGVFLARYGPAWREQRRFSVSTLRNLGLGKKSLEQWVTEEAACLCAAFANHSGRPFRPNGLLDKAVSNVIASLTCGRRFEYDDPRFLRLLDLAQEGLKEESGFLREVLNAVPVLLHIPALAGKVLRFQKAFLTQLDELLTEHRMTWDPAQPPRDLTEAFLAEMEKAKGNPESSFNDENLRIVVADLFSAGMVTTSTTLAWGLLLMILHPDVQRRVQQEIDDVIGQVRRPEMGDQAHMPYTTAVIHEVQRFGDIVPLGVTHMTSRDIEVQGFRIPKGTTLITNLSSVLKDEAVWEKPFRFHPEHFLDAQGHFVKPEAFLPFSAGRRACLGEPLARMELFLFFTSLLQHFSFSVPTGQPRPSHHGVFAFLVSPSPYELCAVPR
Source text: Concomitant use of orismilast • with other drugs mainly metabolized by the cytochrome CYP2D6 has not been studied clinically.

O=C(Cc1c(Cl)c[n+]([O-])cc1Cl)c1ccc(OC(F)F)c2c1OC1(CCS(=O)(=O)CC1)O2 [orismilast, 2-(3,5-dichloro-1-oxidopyridin-1-ium-4-yl)-1-[7-(difluoromethoxy)-1′,1′-dioxospiro[1,3-benzodioxole-2,4′-thiane]-4-yl]ethanone]
variability of the central PK parameters [1]: 27% and 34% | AUClast GM ratio (popPK/NCA) ([1]; 1442 - Part 1 (MR, 30 mg)): 1.03 | AUClast GM ratio (popPK/NCA) ([1]; 1442 - Part 2 (Fast, 30 mg)): 1.14 | AUClast GM ratio (popPK/NCA) ([1]; 1442 - Part 3 (D1 = 10 mg)): 0.98 | AUClast GM ratio (popPK/NCA) ([1]; 1442 - Part 3 (D17 = 60 mg)): 0.97 | AUClast GM ratio (popPK/NCA) ([1]; CIBI3S3A101 (D1 = 10 mg)): 0.98 | variability of Q/F ([1]; peripheral compartment): 383% | variability of V2/F ([1]; peripheral compartment): 495% | inhibition of CYP2D6 (CYP2D6): competitive direct inhibitor
